According to PMC8371461 (Frontiers in Pharmacology, 2021):

Key:
Test in all cases: kinome scan
[1] = target: T1, MAP3K1 (Homo sapiens, UniProt Q13233); assay type: binding; settings: 10 µM
T1 construct: purchased DiscoverX (KINOMEscan)

[2] = target: T2, EPHA7 (Homo sapiens, UniProt Q15375); assay type: binding; settings: 10 µM
T2 construct: purchased DiscoverX (KINOMEscan)

[3] = target: T3, ABL1(F317L)-nonphosphorylated (Homo sapiens, UniProt P00519, F317L); assay type: binding; settings: 10 µM
T3 construct: purchased DiscoverX (KINOMEscan)

[4] = target: T4, AKT1 (Homo sapiens, UniProt P31749); assay type: binding; settings: 10 µM
T4 construct: purchased DiscoverX (KINOMEscan)

[5] = target: T5, TBK1 (Homo sapiens, UniProt Q9UHD2); assay type: binding; settings: 10 µM
T5 construct: purchased DiscoverX (KINOMEscan)

[6] = target: T6, TYRO3 (Homo sapiens, UniProt Q06418); assay type: binding; settings: 10 µM
T6 construct: purchased DiscoverX (KINOMEscan)

[7] = target: T7, KIT(A829P) (Homo sapiens, UniProt P10721, A829P); assay type: binding; settings: 10 µM
T7 construct: purchased DiscoverX (KINOMEscan)

[8] = target: T8, ROCK2 (Homo sapiens, UniProt O75116); assay type: binding; settings: 10 µM
T8 construct: purchased DiscoverX (KINOMEscan)

[9] = target: T9, CAMK4 (Homo sapiens, UniProt Q16566); assay type: binding; settings: 10 µM
T9 construct: purchased DiscoverX (KINOMEscan)
T9 sequence (Q16566 whole entry): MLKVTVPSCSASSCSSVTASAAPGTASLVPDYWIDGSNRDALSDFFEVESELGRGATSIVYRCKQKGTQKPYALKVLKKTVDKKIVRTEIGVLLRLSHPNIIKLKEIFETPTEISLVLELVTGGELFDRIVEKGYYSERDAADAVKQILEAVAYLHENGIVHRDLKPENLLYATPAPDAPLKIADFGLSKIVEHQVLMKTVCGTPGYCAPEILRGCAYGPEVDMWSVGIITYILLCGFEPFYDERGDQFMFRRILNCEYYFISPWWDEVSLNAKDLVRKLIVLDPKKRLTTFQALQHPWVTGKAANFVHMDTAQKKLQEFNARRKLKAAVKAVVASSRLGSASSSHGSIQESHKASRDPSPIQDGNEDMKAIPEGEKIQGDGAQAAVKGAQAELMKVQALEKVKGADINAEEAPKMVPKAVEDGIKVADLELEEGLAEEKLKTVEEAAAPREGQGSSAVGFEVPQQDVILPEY

[10] = target: T10, DDR2 (Homo sapiens, UniProt Q16832); assay type: binding; settings: 10 µM
T10 construct: purchased DiscoverX (KINOMEscan)

[11] = target: T11, MST2 (Homo sapiens, UniProt Q13188); assay type: binding; settings: 10 µM
T11 construct: purchased DiscoverX (KINOMEscan)

[12] = target: T12, AURKA (Homo sapiens, UniProt O14965); assay type: binding; settings: 10 µM
T12 construct: purchased DiscoverX (KINOMEscan)

[13] = target: T13, FGFR4 (Homo sapiens, UniProt P22455); assay type: binding; settings: 10 µM
T13 construct: purchased DiscoverX (KINOMEscan)

[14] = target: T14, CAMK2A (Homo sapiens, UniProt Q9UQM7); assay type: binding; settings: 10 µM
T14 construct: purchased DiscoverX (KINOMEscan)
T14 sequence (Q9UQM7 whole entry): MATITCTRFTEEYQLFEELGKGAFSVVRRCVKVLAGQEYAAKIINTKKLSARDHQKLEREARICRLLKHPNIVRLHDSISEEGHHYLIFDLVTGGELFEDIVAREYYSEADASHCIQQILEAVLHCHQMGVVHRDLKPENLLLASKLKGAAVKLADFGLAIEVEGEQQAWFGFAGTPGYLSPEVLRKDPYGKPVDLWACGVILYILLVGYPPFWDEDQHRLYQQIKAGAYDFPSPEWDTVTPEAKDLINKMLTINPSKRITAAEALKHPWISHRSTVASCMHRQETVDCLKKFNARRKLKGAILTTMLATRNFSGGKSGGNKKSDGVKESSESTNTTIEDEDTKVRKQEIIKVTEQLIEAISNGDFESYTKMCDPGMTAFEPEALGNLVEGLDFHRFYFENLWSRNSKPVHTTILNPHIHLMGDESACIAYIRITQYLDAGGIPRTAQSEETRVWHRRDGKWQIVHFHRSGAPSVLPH

[15] = target: T15, LIMK2 (Homo sapiens, UniProt P53671); assay type: binding; settings: 10 µM
T15 construct: purchased DiscoverX (KINOMEscan)
T15 sequence (P53671 whole entry): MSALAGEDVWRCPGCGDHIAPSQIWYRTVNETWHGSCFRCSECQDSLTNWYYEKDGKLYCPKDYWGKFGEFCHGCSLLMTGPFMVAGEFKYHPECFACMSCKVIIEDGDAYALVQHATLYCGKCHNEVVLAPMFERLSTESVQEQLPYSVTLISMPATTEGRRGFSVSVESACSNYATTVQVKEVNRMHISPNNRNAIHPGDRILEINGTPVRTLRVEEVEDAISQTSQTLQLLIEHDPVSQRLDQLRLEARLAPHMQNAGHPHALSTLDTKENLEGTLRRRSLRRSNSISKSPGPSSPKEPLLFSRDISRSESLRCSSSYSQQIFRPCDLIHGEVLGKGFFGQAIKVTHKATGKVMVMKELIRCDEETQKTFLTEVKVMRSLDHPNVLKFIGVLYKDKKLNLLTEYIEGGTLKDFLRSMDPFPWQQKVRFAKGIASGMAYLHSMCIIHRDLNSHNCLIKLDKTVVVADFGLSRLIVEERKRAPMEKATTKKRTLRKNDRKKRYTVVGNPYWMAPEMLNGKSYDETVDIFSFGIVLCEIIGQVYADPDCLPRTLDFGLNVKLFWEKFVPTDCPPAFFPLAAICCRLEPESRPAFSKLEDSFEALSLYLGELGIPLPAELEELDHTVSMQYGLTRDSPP

[16] = target: T16, TLK1 (Homo sapiens, UniProt Q9UKI8); assay type: binding; settings: 10 µM
T16 construct: purchased DiscoverX (KINOMEscan)

[17] = target: T17, MERTK (Homo sapiens, UniProt Q12866); assay type: binding; settings: 10 µM
T17 construct: purchased DiscoverX (KINOMEscan)

[18] = target: T18, MEK6 (Homo sapiens, UniProt P52564); assay type: binding; settings: 10 µM
T18 construct: purchased DiscoverX (KINOMEscan)

[19] = target: T19, PHKG1 (Homo sapiens, UniProt Q16816); assay type: binding; settings: 10 µM
T19 construct: purchased DiscoverX (KINOMEscan)

[20] = target: T20, CAMK2G (Homo sapiens, UniProt Q13555); assay type: binding; settings: 10 µM
T20 construct: purchased DiscoverX (KINOMEscan)

[21] = target: T21, PKAC-alpha (Homo sapiens, UniProt P17612); assay type: binding; settings: 10 µM
T21 construct: purchased DiscoverX (KINOMEscan)

[22] = target: T22, HIPK2 (Homo sapiens, UniProt Q9H2X6); assay type: binding; settings: 10 µM
T22 construct: purchased DiscoverX (KINOMEscan)

[23] = target: T23, MST1R (Homo sapiens, UniProt Q04912); assay type: binding; settings: 10 µM
T23 construct: purchased DiscoverX (KINOMEscan)

[24] = target: T24, PRKG2 (Homo sapiens, UniProt Q13237); assay type: binding; settings: 10 µM
T24 construct: purchased DiscoverX (KINOMEscan)
T24 sequence (Q13237 whole entry): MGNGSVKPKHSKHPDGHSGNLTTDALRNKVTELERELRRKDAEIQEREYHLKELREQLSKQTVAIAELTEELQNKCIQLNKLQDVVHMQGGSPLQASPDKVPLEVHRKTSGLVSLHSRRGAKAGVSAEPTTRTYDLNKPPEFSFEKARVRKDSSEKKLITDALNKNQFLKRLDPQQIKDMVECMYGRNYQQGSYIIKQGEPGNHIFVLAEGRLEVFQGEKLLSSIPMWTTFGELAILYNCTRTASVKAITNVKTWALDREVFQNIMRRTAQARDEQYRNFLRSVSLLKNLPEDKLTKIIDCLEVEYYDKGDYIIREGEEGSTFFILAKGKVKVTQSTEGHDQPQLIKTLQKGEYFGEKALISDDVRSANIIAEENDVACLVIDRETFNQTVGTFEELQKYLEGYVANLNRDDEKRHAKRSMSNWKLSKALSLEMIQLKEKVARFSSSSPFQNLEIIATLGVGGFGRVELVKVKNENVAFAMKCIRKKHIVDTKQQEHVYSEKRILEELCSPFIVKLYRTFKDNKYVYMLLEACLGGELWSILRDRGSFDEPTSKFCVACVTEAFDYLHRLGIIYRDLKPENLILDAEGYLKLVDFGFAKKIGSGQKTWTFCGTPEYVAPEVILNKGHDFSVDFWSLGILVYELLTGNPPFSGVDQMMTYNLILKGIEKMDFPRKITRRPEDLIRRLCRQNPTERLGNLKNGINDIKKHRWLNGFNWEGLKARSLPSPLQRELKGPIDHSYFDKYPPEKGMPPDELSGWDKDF

[25] = target: T25, STK16 (Homo sapiens, UniProt O75716); assay type: binding; settings: 10 µM
T25 construct: purchased DiscoverX (KINOMEscan)

[26] = target: T26, CSF1R (Homo sapiens, UniProt P07333); assay type: binding; settings: 10 µM
T26 construct: purchased DiscoverX (KINOMEscan)

[27] = target: T27, ANKK1 (Homo sapiens, UniProt Q8NFD2); assay type: binding
T27 construct: purchased DiscoverX (KINOMEscan)
T27 sequence (Q8NFD2 1-765): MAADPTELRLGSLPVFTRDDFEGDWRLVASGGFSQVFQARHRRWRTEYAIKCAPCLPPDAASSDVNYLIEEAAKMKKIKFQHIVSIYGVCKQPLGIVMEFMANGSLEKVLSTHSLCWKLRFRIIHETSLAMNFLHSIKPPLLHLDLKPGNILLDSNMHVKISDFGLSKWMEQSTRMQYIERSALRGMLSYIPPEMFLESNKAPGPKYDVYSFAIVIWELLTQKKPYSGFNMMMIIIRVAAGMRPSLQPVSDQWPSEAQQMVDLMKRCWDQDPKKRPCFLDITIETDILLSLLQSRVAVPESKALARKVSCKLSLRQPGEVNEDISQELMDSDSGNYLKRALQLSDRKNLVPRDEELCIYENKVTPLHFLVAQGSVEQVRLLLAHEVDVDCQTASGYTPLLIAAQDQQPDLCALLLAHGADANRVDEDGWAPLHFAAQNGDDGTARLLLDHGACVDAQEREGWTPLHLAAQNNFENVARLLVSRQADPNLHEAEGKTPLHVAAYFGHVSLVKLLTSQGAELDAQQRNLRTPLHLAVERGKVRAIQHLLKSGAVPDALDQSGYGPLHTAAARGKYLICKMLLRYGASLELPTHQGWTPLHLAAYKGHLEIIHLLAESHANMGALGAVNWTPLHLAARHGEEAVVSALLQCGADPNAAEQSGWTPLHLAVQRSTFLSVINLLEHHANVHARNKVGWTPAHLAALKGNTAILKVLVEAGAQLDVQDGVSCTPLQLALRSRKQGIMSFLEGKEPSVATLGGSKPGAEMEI

[28] = target: T28, MARK4 (Homo sapiens, UniProt Q96L34); assay type: binding; settings: 10 µM
T28 construct: purchased DiscoverX (KINOMEscan)

[29] = target: T29, CDC2L1 (Homo sapiens, UniProt P21127); assay type: binding; settings: 10 µM
T29 construct: purchased DiscoverX (KINOMEscan)

[30] = target: T30, STK36 (Homo sapiens, UniProt Q9NRP7); assay type: binding; settings: 10 µM
T30 construct: purchased DiscoverX (KINOMEscan)

[31] = target: T31, PIK3CG (Homo sapiens, UniProt P48736); assay type: binding
T31 construct: purchased DiscoverX (KINOMEscan)
T31 sequence (P48736 whole entry): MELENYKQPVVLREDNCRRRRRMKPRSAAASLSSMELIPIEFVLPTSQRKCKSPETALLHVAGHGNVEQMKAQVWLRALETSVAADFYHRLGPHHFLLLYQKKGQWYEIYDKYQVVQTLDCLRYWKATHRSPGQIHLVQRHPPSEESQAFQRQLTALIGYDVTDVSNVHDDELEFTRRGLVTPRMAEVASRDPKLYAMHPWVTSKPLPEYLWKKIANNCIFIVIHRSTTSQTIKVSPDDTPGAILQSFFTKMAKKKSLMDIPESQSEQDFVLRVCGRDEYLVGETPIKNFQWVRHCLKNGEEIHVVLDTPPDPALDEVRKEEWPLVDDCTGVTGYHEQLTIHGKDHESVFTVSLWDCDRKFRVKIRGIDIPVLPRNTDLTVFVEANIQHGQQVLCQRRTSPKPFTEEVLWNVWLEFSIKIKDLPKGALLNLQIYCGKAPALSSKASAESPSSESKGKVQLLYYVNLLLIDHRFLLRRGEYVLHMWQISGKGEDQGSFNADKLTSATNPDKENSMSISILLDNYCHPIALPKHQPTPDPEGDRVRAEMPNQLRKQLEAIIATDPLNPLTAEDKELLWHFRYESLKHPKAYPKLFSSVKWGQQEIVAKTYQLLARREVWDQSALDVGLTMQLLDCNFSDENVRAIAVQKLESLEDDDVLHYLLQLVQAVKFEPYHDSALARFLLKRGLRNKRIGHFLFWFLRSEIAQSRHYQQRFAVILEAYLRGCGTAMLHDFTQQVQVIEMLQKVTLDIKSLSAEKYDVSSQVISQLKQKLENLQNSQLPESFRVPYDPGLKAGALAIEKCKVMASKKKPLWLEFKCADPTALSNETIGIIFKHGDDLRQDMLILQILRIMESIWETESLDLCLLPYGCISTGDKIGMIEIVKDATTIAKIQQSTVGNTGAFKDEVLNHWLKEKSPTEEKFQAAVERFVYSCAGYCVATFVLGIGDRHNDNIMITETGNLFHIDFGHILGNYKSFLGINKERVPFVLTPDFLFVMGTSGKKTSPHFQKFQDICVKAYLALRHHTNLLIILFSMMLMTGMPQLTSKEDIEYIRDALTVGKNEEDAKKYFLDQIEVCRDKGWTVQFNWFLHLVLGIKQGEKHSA

[32] = target: EGFR(L747-T751delSins); assay type: binding, human; settings: 10 µM
[33] = target: T32, EPHB1 (Homo sapiens, UniProt P54762); assay type: binding; settings: 10 µM
T32 construct: purchased DiscoverX (KINOMEscan)

[34] = target: T33, DMPK2 (Homo sapiens, UniProt Q6DT37); assay type: binding; settings: 10 µM
T33 construct: purchased DiscoverX (KINOMEscan)
T33 sequence (Q6DT37 whole entry): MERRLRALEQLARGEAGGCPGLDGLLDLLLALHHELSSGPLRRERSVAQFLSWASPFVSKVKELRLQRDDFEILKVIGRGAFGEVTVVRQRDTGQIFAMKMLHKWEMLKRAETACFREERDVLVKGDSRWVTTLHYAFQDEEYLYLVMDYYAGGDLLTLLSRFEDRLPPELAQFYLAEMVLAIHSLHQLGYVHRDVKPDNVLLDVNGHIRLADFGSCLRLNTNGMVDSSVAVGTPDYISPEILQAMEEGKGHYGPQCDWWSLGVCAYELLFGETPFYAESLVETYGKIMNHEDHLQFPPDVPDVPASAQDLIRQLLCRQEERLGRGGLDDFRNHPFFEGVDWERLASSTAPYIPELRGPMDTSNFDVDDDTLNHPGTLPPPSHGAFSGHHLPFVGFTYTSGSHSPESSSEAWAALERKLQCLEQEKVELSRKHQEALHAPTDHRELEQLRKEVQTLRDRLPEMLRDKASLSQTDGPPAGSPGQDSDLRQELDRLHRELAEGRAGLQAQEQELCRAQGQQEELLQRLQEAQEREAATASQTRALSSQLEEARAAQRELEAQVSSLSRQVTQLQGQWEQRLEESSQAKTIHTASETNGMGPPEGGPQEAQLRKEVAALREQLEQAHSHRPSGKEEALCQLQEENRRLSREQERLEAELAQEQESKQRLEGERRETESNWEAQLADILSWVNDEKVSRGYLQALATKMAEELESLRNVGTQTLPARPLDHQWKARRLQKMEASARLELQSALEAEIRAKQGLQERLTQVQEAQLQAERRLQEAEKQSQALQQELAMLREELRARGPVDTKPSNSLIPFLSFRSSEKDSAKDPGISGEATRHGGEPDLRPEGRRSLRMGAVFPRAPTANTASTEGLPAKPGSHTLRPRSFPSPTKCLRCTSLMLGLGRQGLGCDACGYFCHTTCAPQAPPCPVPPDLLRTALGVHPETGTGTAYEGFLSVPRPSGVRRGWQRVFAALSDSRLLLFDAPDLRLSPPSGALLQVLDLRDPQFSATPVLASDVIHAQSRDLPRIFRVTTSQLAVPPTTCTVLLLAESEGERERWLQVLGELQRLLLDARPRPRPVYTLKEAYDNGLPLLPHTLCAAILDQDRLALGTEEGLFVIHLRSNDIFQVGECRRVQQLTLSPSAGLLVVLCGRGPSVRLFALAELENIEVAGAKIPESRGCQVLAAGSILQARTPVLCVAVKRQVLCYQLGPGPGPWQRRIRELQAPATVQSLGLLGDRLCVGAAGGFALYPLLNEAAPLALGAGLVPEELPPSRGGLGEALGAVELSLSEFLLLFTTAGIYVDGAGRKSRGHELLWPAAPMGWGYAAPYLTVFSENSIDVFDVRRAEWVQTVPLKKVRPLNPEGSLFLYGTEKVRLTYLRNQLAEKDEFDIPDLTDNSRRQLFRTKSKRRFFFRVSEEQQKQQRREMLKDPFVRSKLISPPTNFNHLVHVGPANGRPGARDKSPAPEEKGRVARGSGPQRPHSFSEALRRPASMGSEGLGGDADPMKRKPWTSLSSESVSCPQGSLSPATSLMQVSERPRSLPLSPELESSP

**Q.** Which results are given for `Nc1ccc(N=Nc2ccccc2)c(N)n1` [phenazopyridine, 2,6-diamino-3-(phenylazo)pyridine]?
**A.** kinase inhibition [1]: 100; kinase inhibition [2]: 91; kinase inhibition [3]: 67; kinase inhibition [4]: 99; kinase inhibition [5]: 100; kinase inhibition [6]: 94; kinase inhibition [7]: 95; kinase inhibition [8]: 89; kinase inhibition [9]: 67; kinase inhibition [10]: 100; kinase inhibition [11]: 73; kinase inhibition [12]: 100; kinase inhibition [13]: 91; kinase inhibition [14]: 97; kinase inhibition [15]: 96; kinase inhibition [16]: 70; kinase inhibition [17]: 100; kinase inhibition [18]: 95; kinase inhibition [19]: 98; kinase inhibition [20]: 100; kinase inhibition [21]: 100; kinase inhibition [22]: 89; kinase inhibition [23]: 94; kinase inhibition [24]: 81; kinase inhibition [25]: 76; kinase inhibition [26]: 81; remaining binding (% of control) ([27]; 10 µM): 18; remaining binding at 10 µM ([27]; read-out: % Of control): 18%; kinase inhibition [28]: 84; kinase inhibition [29]: 90; kinase inhibition [30]: 99; percent of control (remaining binding) ([31]; 10 µM): 27; remaining binding at 10 µM ([31]; read-out: Kinome scan (% of control at 10 µM)): 27%; kinase inhibition [32]: 80; kinase inhibition [33]: 100; kinase inhibition [34]: 100
